Assay results as given in patent US20010023259A1, “Conjugated fatty acids and related compounds” (Natural ASA, priority 1999, published 2001).

Tested on: Spirulina platensis (Arthrospira sp.) PCC8005
Test: Incubation of fatty acid substrates with S. platensis; fatty acid composition of extracted lipids by GC
Type: cell-based
Conditions: for 6,9,11 - 18:3 (desaturated metabolite), fatty acid composition of lipids extracted from S. platensis / 9,11 - 18:2 (substrate taken up), fatty acid composition of lipids extracted from S. platensis / Amount, total weight of lipid in extract / linoleic acid 18:2, fatty acid composition of lipids extracted from S. platensis / linolenic acid 18:3 (n-6), fatty acid composition of lipids extracted from S. platensis / oleic acid 18:1, fatty acid composition of lipids extracted from S. platensis / palmitic acid 16:0, fatty acid composition of lipids extracted from S. platensis / palmitoleic acid 16:1, fatty acid composition of lipids extracted from S. platensis / stearic acid 18:0, fatty acid composition of lipids extracted from S. platensis: incubation with added 9-cis,11-trans-octadecadienoic acid
Procedure: Spirulina platensis (Arthrospira sp.) PCC8005 was grown in Zabrouk's medium in 50 ml batch culture in 100 ml erlenmeyer flasks at 30° C. with illumination of 50 μmol photons m^-2 […]. Cultures were harvested following 5 days growth by centrifugation at 40,000 g in a […] rotor in a Beckman Avanti centrifuge 20 minutes, cooled rotor @4° C. The algal pellet was carefully resuspended in fresh Zabrouk's medium under aseptic conditions. Initial time-course experiments were carried out by resuspending the algal pellet in 50 ml fresh medium, which was then divided into 10 ml aliquots, each containing 0.5 ml of 1.8mM ammonium fatty acid substrate and incubating under the above conditions. Control cultures incubated without linoleate were also set up. […] The algal pellet was washed four times in 50 ml freshly drawn MilliQ water and then freeze dried prior to analyses. In later experiments where bulk material was required for a more detailed analysis of the metabolite produced, 4×50 ml cultures were grown and harvested as above. […] Following this incubation the algal material was pelleted, washed and freeze dried as described above. […] The latter were converted to the picolinyl ester derivatives by the procedure of Balazy and Nies, Biomed. Environ. […] The temperature of both the injector and detector was 250° C. Hydrogen was the carrier gas. The analyses were performed with a column (fused silica capillary) coated with carbowax (Chrompack UK Ltd, London, 30 m×[…] i.d.). The oven temperature was programmed from 170 to 220° C. at 4° C./min.

In the case of CCCCCC/C=C/C=C\CCCCCCCC(=O)O [CLA, 9-cis,11-trans-octadecadienoic acid], the “recovered CLA isomer converted to the desaturated metabolite” value (after 24 hours) is reported as 13%, the “compound taken up from the surrounding medium, share of lipid” value (at 24 hrs) is reported as 27.8 % of lipid and the “time at which plateau level of the 6,9,11 tri-unsaturated fatty acid is attained” value (conversion of the di-unsaturated compound) is reported as “about 72 hours”. The “change of relative proportion of oleate with time” value (extracts incubated with the CLA isomer, 0-96 h) was “increased four fold”, the “6,9,11 - 18:3 (desaturated metabolite), fatty acid composition of lipids extracted from S. platensis” value (from here on “6,9,11 - 18:3 (desaturated metabolite)”) (0h) was 0.0 wt % and the “9,11 - 18:2 (substrate taken up), fatty acid composition of lipids extracted from S. platensis” value (“9,11 - 18:2 (substrate taken up)” for short) (0h) was 0.0 wt %. For the same compound, the “Amount, total weight of lipid in extract” value (0h) was 85.3 µg, the “linoleic acid 18:2, fatty acid composition of lipids extracted from S. platensis” value (0h) was 11.7 wt % and the “linolenic acid 18:3 (n-6), fatty acid composition of lipids extracted from S. platensis” value (0h) was 32.2 wt %. For the same compound, the “oleic acid 18:1, fatty acid composition of lipids extracted from S. platensis” value (shortened to “oleic acid 18:1, fatty acid composition”) (0h) was 4.9 wt %, the “palmitic acid 16:0, fatty acid composition of lipids extracted from S. platensis” value (0h) was 42.0 wt % and the “palmitoleic acid 16:1, fatty acid composition of lipids extracted from S. platensis” value (0h) was 6.5 wt %. The “stearic acid 18:0, fatty acid composition of lipids extracted from S. platensis” value (0h) was 2.6 wt %, the “6,9,11 - 18:3 (desaturated metabolite)” value (24h) was 4.1 wt % and the “9,11 - 18:2 (substrate taken up)” value (24h) was 27.8 wt %. The “Amount, total weight of lipid in extract” value (24h) was 170.3 µg, the “linoleic acid 18:2, fatty acid composition of lipids extracted from S. platensis” value (24h) was 8.2 wt % and the “linolenic acid 18:3 (n-6), fatty acid composition of lipids extracted from S. platensis” value (24h) was 19.5 wt %. For the same compound, the “oleic acid 18:1, fatty acid composition” value (24h) was 4.0 wt %, the “palmitic acid 16:0, fatty acid composition of lipids extracted from S. platensis” value (24h) was 30.7 wt % and the “palmitoleic acid 16:1, fatty acid composition of lipids extracted from S. platensis” value (24h) was 4.7 wt %. The “stearic acid 18:0, fatty acid composition of lipids extracted from S. platensis” value (24h) was 0.9 wt %, the “6,9,11 - 18:3 (desaturated metabolite)” value (48h) was 5.1 wt % and the “9,11 - 18:2 (substrate taken up)” value (48h) was 21.2 wt %. The “Amount, total weight of lipid in extract” value (48h) was 188.3 µg, the “linoleic acid 18:2, fatty acid composition of lipids extracted from S. platensis” value (48h) was 6.9 wt % and the “linolenic acid 18:3 (n-6), fatty acid composition of lipids extracted from S. platensis” value (48h) was 19.0 wt %. For the same compound, the “oleic acid 18:1, fatty acid composition” value (48h) was 8.6 wt %, the “palmitic acid 16:0, fatty acid composition of lipids extracted from S. platensis” value (48h) was 32.7 wt % and the “palmitoleic acid 16:1, fatty acid composition of lipids extracted from S. platensis” value (48h) was 5.3 wt %. For the same compound, the “stearic acid 18:0, fatty acid composition of lipids extracted from S. platensis” value (48h) was 1.2 wt %, the “6,9,11 - 18:3 (desaturated metabolite)” value (72h) was 5.7 wt % and the “9,11 - 18:2 (substrate taken up)” value (72h) was 16.2 wt %. The “Amount, total weight of lipid in extract” value (72h) was 211.8 µg, the “linoleic acid 18:2, fatty acid composition of lipids extracted from S. platensis” value (72h) was 4.9 wt % and the “linolenic acid 18:3 (n-6), fatty acid composition of lipids extracted from S. platensis” value (72h) was 16.5 wt %. The “oleic acid 18:1, fatty acid composition” value (72h) was 15.4 wt %, the “palmitic acid 16:0, fatty acid composition of lipids extracted from S. platensis” value (72h) was 34.3 wt % and the “palmitoleic acid 16:1, fatty acid composition of lipids extracted from S. platensis” value (72h) was 5.4 wt %. The “stearic acid 18:0, fatty acid composition of lipids extracted from S. platensis” value (72h) was 1.7 wt %, the “6,9,11 - 18:3 (desaturated metabolite)” value (96h) was 5.8 wt % and the “9,11 - 18:2 (substrate taken up)” value (96h) was 10.5 wt %. The “Amount, total weight of lipid in extract” value (96h) was 166.2 µg, the “linoleic acid 18:2, fatty acid composition of lipids extracted from S. platensis” value (96h) was 3.9 wt % and the “linolenic acid 18:3 (n-6), fatty acid composition of lipids extracted from S. platensis” value (96h) was 15.1 wt %. The “oleic acid 18:1, fatty acid composition” value (96h) was 21.6 wt %, the “palmitic acid 16:0, fatty acid composition of lipids extracted from S. platensis” value (96h) was 35.4 wt % and the “palmitoleic acid 16:1, fatty acid composition of lipids extracted from S. platensis” value (96h) was 5.7 wt %. The “stearic acid 18:0, fatty acid composition of lipids extracted from S. platensis” value (96h) was 1.9 wt % and the “incorporation into the lipids of S. platensis” value (shortened to “incorporation into the lipids”) (substrate added exogenously) was “rapidly take up the compound”.
In the case of CCCCCC#CCC=CCCCCCCCC(=O)O [Crepenynic acid, octadeca-9-en-12-ynoic acid], the “C20 homologue formed by chain elongation in the total fatty acids” value (96 hours incubation) is reported as “detected”, the “desaturation in position 6 by S. platensis” value (substrate added exogenously) is reported as “converted to a dehydro-metabolite” and the “incorporation into the lipids” value (substrate added exogenously) is reported as “taken up”.
For CCCCC/C=C\C=C\CCCCCCCCC(=O)O [10-t,12-c-octadecadienoic acid], the “metabolite formed, share of the conjugated acids” value (96 hours incubation) was 18 % of the conjugated acids, the “metabolite formed, share of the total fatty acids” value (96 hours incubation, GC retention time expected for 6-c,10-t,12-c-octadecatrienoic acid) was 6.4 % of the total fatty acids and the “incorporation into the lipids” value (substrate added exogenously) was “rapidly incorporated”.
